Data on 18 substances can be found in patent US6841535B2, “Peptide-mediated transfection agents and methods of use” (Active Motif, priority 2000, dated 2005).

*1 amine or outer side, *2 acyl side, *3 side chain or, on linkers, in order; H or OH if unused. Where no end group is shown, it is not given here. Cysteamide = C(CS[*:3])N[*:1]

Data set [1] concerns mammalian fibroblasts, NIH 3T3 fibroblasts or murine L1210 lymphocytes. Briefly: Cellular localization of lucifer yellow-linked peptides. The data set is classed as cell-based. The following applies: 3 min incubation at 10 μM.
Data set [2] concerns HS-68 and NIH 3T3 cell lines. Description: Peptide delivery by vector peptides (fluorescently labeled peptide B / peptide A). The data set is classed as cell-based. Particulars: transfection of fluorescently labeled peptide; one micromolar vector peptide; 1 h. On the procedure:
(§1) We evaluated the ability of peptides designed according to principles described herein, as well as variants thereof, to deliver peptides and proteins into HS-68 and NIH 3T3 cell lines. Peptide delivery was performed with a 32 mer peptide (peptide B), and in some cases a […] peptide (peptide A). The peptides were fluorescently labeled. Peptides (5.0×10^−8M or 5.0×10^−7M) were incubated with one micromolar vector peptide in cell culture medium in the absence of serum for 30 min. Cultured cells (0.5 to 1.0×10^6) were then overlaid with the preformed peptide/vector peptide complexes in 500 μL DMEM for one hour in the presence or absence of FCS. Complexes were formed prior to addition of FCS to avoid interactions between ep-vector and serum proteins. Following this transfection step, fresh DMEM supplemented with serum was added for another hour. Then cells were extensively washed, fixed and analyzed by fluorescence microscopy.
(§2) The results of the experiments testing the transfection properties of the peptides are presented as a table in which the sequences are aligned for optimal comparison: […]

In data set [3] the test system is HS-68 and NIH 3T3 cell lines. Briefly: Drug delivery by vector peptides (ANS and Bis-ANS). The following applies: transfection of ANS and Bis-ANS; incubated with peptide at a molar ratio of 1:20; 1 h. The data set is classed as cell-based. On the procedure:
For investigation of drug delivery, we used the naphthalene derivatives ANS and Bis-ANS, which have intrinsic fluorescence. The drugs was incubated with peptide at a molar ratio of 1:20, followed by overlay of the complex onto cultured cells. This was followed by incubation for 1 h. Then cells were extensively washed and observed by microscopy.
as §2

In data set [4] the test system is HS-68 and NIH 3T3 cell lines. Description: Protein delivery by vector peptides (GFP). The data set is classed as cell-based. The following applies: transfection of GFP; incubated with peptide at a molar ratio of 1:20; 1 h. How it is done: as §1
To investigate protein delivery we tested the delivery into cells of the fluorescent protein GFP. The protein was incubated with peptide at a molar ratio of 1:20, followed by overlay of the complex onto cultured cells. This was followed by incubation for 1 h. Then cells were extensively washed and fixed with formalin before observation.
as §2

The conditions of data set [5]: phosphatidylcholine or phosphatidylserine monolayers; cited from earlier work.
Data set [6] has as its system Acheloplasma laidlawii and Spiroplasma melliferum. The following applies: concentrations much lower than minimal inhibitory concentrations; cited from earlier work.
The subject of data set [7] is human fibroblasts (HS-68). Description: Cellular localization of rhodamine-labeled ODN-peptide conjugate. The data set is classed as cell-based. On the procedure: The first ODN has the sequence d(GGTCTTACTCTCCGTCTCT) (SEQ ID NO:30). It was modified in 5′ by a hexamethylene-bridged pyridyldisulfide and in 3′ by a 2-propanol-3-amino group and labeled with rhodamine. Conjugation was performed by stirring a solution of the oligonucleotide with a three fold excess of peptide for 3 h. […] The target compartment of the conjugate remains to be identified.

“GALFLGWLGAAGSTMGARKKKRKV (Ac-GALFLGWLGAAGSTMGARKKKRKV; not fully specified (C-terminus); printed as GALFLGWLGAAGSTMGARKKKRKV) [[4]]”: the “final localization of lucifer yellow-linked peptide” value (“final localization” below) in data set [1] was “remains membrane associated”.

Take “GALFLGWLGAAGSTMGAWSQPKKKRKV (Ac-GALFLGWLGAAGSTMGAWSQPKKKRKV; not fully specified (C-terminus); printed as GALFLGWLGAAGSTMGAWSQPKKKRKV) [[3]]”: the “final localization” value in data set [1] is “both localizations, membrane associate and nuclear”.

As for KETWWETWWETWSQKKKRKV [Pep-2.9-cya], the Pep in data set [2] amounted to 5%.

Consider KETWWETWWTEWSQPKKRKV [Pep-2.1-cya], for which, in data set [3], the Drug turned out to be 20%. Also, in data set [4], the Pro was found to be 70%. The substance also registered a Pep in data set [2] of 80%.

With KTWWETWWETWSQPKKRKV [Pep-4.2-cya], the Drug entry in data set [3] was “Aggr”. Moreover, in data set [4], the Pro entry is given as “Aggr”. Besides, in data set [2], the Pep entry is recorded as “Aggr”.

Take “Lys Glu Thr Trp Trp Glu Thr Trp Thr Trp Ser Gln Pro Lys Lys Lys Arg Lys Val (Ac-KETWWETWTWSQPKKKRKV-Cysteamide) [Pep-2.4-cya]”: in data set [3], the Drug came out at 5%. Moreover, the Pro in data set [4] is given as 20-30%. In data set [2], this substance gave a Pep of 60%.

With “Lys Glu Thr Trp Trp Glu Thr Trp Trp Glu Thr Trp Ser Gln Pro Lys Lys Lys Arg Lys Val (Ac-KETWWETWWETWSQPKKKRKV-Cysteamide) [Pep-2.3-cya]”, in data set [3], the Drug is on record as 30%. Also, the Pro in data set [4] is reported as 50-70%. Further, in data set [2], the Pep is on record as 60-70%.

On to “Lys Glu Thr Trp Trp Glu Thr Trp Trp Thr Glu Ala Ser Gln Pro Lys Lys Arg Lys Val (Ac-KETWWETWWTEASQPKKRKV-Cysteamide) [Pep-2.2-cya]”, for which, in data set [3], the Drug is given as 5%. Also, the Pro in data set [4] came to 30%.

On to “Lys Glu Thr Trp Trp Glu Thr Trp Trp Thr Glu Trp Ser Gln Pro Lys Lys Lys Arg Lys Val (Ac-KETWWETWWTEWSQPKKKRKV-Cysteamide) [Pep-2-cya]”, for which the Drug in data set [3] turned out to be 20%.

Regarding “Lys Lys Lys Arg Lys Val Lys Glu Thr Trp Trp Glu Thr Trp Trp Glu Thr Val (Ac-KKKRKVKETWWETWWETV-Cysteamide; SMILES CC(=O)N[C@@H](CCCCN)C(=O)N[C@@H](CCCCN)C(=O)N[C@@H](CCCCN)C(=O)N[C@@H](CCCNC(=N)N)C(=O)N[C@@H](CCCCN)C(=O)N[C@H](C(=O)N[C@@H](CCCCN)C(=O)N[C@@H](CCC(=O)O)C(=O)N[C@H](C(=O)N[C@@H](Cc1c[nH]c2ccccc12)C(=O)N[C@@H](Cc1c[nH]c2ccccc12)C(=O)N[C@@H](CCC(=O)O)C(=O)N[C@H](C(=O)N[C@@H](Cc1c[nH]c2ccccc12)C(=O)N[C@@H](Cc1c[nH]c2ccccc12)C(=O)N[C@@H](CCC(=O)O)C(=O)N[C@H](C(=O)N[C@H](C(=O)NCCS)C(C)C)[C@@H](C)O)[C@@H](C)O)[C@@H](C)O)C(C)C) [Pep-2.6-cya]”, in data set [4], the Pro amounted to 20%. For the same substance, the Pep in data set [2] was 30%.

“Lys Lys Lys Arg Lys Val Lys Pro Glu Thr Trp Trp Glu Thr Trp Trp Glu Thr Val (Ac-KKKRKVKPETWWETWWETV-Cysteamide) [Pep-2.7-cya]”: the Pro in data set [4] is given as 10-20%. Moreover, the Pep in data set [2] was 20-30%.

With “Lys Thr Trp Trp Glu Thr Trp Trp Glu Thr Ala Ser Gln Pro Lys Lys Arg Lys Val (Ac-KTWWETWWETASQPKKRKV-Cysteamide; SMILES CC(=O)N[C@@H](CCCCN)C(=O)N[C@H](C(=O)N[C@@H](Cc1c[nH]c2ccccc12)C(=O)N[C@@H](Cc1c[nH]c2ccccc12)C(=O)N[C@@H](CCC(=O)O)C(=O)N[C@H](C(=O)N[C@@H](Cc1c[nH]c2ccccc12)C(=O)N[C@@H](Cc1c[nH]c2ccccc12)C(=O)N[C@@H](CCC(=O)O)C(=O)N[C@H](C(=O)N[C@@H](C)C(=O)N[C@@H](CO)C(=O)N[C@@H](CCC(N)=O)C(=O)N1CCC[C@H]1C(=O)N[C@@H](CCCCN)C(=O)N[C@@H](CCCCN)C(=O)N[C@@H](CCCNC(=N)N)C(=O)N[C@@H](CCCCN)C(=O)N[C@H](C(=O)NCCS)C(C)C)[C@@H](C)O)[C@@H](C)O)[C@@H](C)O) [Pep-4.1-cya]”, in data set [3], the Drug result was “Aggr”. Further, in data set [4], the Pro entry is on record as “Aggr”. Besides, the Pep result in data set [2] was “Aggr”.

In the case of “Lys Trp Trp Glu Thr Trp Trp Glu Thr Trp Ser Gln Pro Lys Lys Lys Arg Lys Val (Ac-KWWETWWETWSQPKKKRKV-Cysteamide) [Pep-2.5-cya]”, the Drug in data set [3] is 5%. The Pro in data set [4] amounted to 5%. Besides, the Pep in data set [2] is 50-60%.

Turning to “MGLGLHLLVLAAALQGAWSQPKKKRKV (Ac-MGLGLHLLVLAAALQGAWSQPKKKRKV; not fully specified (C-terminus); printed as MGLGLHLLVLAAALQGAWSQPKKKRKV) [[1]]”, in data set [5], the surface pressure increase is recorded as ~15 mN/m. Moreover, the “effect on membrane potential and transmembrane pH gradient” value in data set [6] is listed as “decrease”. Further, in data set [1], the “final localization” value is reported as “localize in the nuclei of the cells”.

On to “Tyr Gly Phe Lys Lys Arg Arg Gln Pro Thr Trp Trp Glu Thr Trp Trp Thr Glu (Ac-YGFKKRRQPTWWETWWTE-Cysteamide) [Pep-1.1-cya]”, for which the Drug in data set [3] is given as 5%. In data set [4], the Pro was 60%. Also, in data set [2], the Pep worked out at 80%.

For “Tyr Gly Phe Lys Lys Arg Arg Gln Thr Trp Trp Glu Thr Trp Trp Thr Glu (Ac-YGFKKRRQTWWETWWTE-Cysteamide) [Pep-1.2-cya]”, the Drug in data set [3] is given as 5%. For the same substance, the Pro in data set [4] is given as 80-90%. Moreover, the Pep in data set [2] is 80%.

For the substance “Tyr Gly Phe Lys Lys Phe Arg Lys Pro Trp Thr Trp Trp Glu Thr Trp Trp Thr Glu (Ac-YGFKKFRKPWTWWETWWTE-Cysteamide; SMILES CC(=O)N[C@@H](Cc1ccc(O)cc1)C(=O)NCC(=O)N[C@@H](Cc1ccccc1)C(=O)N[C@@H](CCCCN)C(=O)N[C@@H](CCCCN)C(=O)N[C@@H](Cc1ccccc1)C(=O)N[C@@H](CCCNC(=N)N)C(=O)N[C@@H](CCCCN)C(=O)N1CCC[C@H]1C(=O)N[C@@H](Cc1c[nH]c2ccccc12)C(=O)N[C@H](C(=O)N[C@@H](Cc1c[nH]c2ccccc12)C(=O)N[C@@H](Cc1c[nH]c2ccccc12)C(=O)N[C@@H](CCC(=O)O)C(=O)N[C@H](C(=O)N[C@@H](Cc1c[nH]c2ccccc12)C(=O)N[C@@H](Cc1c[nH]c2ccccc12)C(=O)N[C@H](C(=O)N[C@@H](CCC(=O)O)C(=O)NCCS)[C@@H](C)O)[C@@H](C)O)[C@@H](C)O) [Pep-3-cya]”, the Drug in data set [3] is given as 50-70%. For the same substance, the Pro in data set [4] is 5%. In data set [2], this substance had a Pep of 50%.

“d(GGTCTTACTCTCCGTCTCT) (DNA, backbone not given here; 5' hexamethylene pyridyldisulfide, 3' 2-propanol-3-amino, rhodamine label, peptide conjugated) [first ODN]”: the “cellular localization of the conjugate” value in data set [7] (ODN conjugated to peptide, 5 min incubation) is “clearly cytoplasmic but not nuclear”. For the same substance, the “cellular internalization of the free oligonucleotide” value in data set [7] (free, not conjugated) was “no spontaneous cellular internalization could be detected”.
